Tests used:
MV-4-11 = assay: Cell viability assay (CellTiter-Meiluncell Luminescent), tumor cell proliferation, MV-4-11; details: Homo sapiens, MV4-11, 96 h; for inhibition at 0.01 µM: read-out: Inhibition Rate at 10 nM (%); for inhibition at 0.5 µM: read-out: Inhibition Rate at 500 nM (%)
Procedure: (§1) The tumor cells used herein were cultured in a cell culture medium listed in table 2 at 37°C in an incubator with 5% CO2. Prior to experimentation, all cell lines used were correctly identified by STR profiling, and tested negative for mycoplasma contamination using a mycoplasma detection kit through routine screenings.
(§2) On the following day, the test compounds of the present disclosure were subjected to serial dilution. […] Subsequently, 0.5 µL of the test compound dilution was transferred into the 96-well plate containing the cells, with each well containing 100 µL of cell culture medium. […] Into the 96-well plate, the diluted test compounds and corresponding detection reagents were added, resulting in final test compound concentrations of 500 nM and 10 nM, respectively. The experimental procedure is described below using the diluted 2 µM test compound as an example.
(§3) After the cells were treated with the compounds of the present disclosure for a specified period, the cell viability assay reagent was added to the culture medium according to the kit's instructions to determine cell viability. […] All controls were treated using the same procedure as the compounds of the present disclosure. The growth inhibition curves for the compounds of the present disclosure were plotted using Prism GraphPad software, and the IC50 values were calculated therefrom.

MM.1S = assay: Cell viability assay (CellTiter-Meiluncell Luminescent), tumor cell proliferation, MM.1S; details: Homo sapiens, MM1.S, 96 h; for inhibition at 0.01 µM: read-out: Inhibition Rate at 10 nM (%); for inhibition at 0.5 µM: read-out: Inhibition Rate at 500 nM (%)
IKZF2 = target: T1, IKZF2 (Homo sapiens, UniProt Q96SW2+Q9UKS7); assay: Western-blot assay, substrate protein degradation in hPBMCs: IKZF2; assay type: cell-based; details: 24 hours of compound treatment, 50 nM and 500 nM
T1 construct: effects of the compounds of the present disclosure on the expression of target proteins in cells; endogenous in cells; host or cells: human PBMCs (hPBMCs)

GSPT1 = target: T2, GSPT1 (Homo sapiens, UniProt P15170+Q96SW2); assay: Western-blot assay, substrate protein degradation in hPBMCs: GSPT1; assay type: cell-based; details: 24 hours of compound treatment, 50 nM and 500 nM
T2 construct: effects of the compounds of the present disclosure on the expression of target proteins in cells; endogenous in cells; host or cells: human PBMCs (hPBMCs)

IKZF3 = target: T3, IKZF3 (Homo sapiens, UniProt Q96SW2+Q9UKT9); assay: Western-blot assay, substrate protein degradation in hPBMCs: IKZF3; assay type: cell-based; details: 24 hours of compound treatment, 50 nM and 500 nM
T3 construct: effects of the compounds of the present disclosure on the expression of target proteins in cells; endogenous in cells; host or cells: human PBMCs (hPBMCs)

IKZF1 = target: T4, IKZF1 (Homo sapiens, UniProt Q13422+Q96SW2); assay: Western-blot assay, substrate protein degradation in hPBMCs: IKZF1; assay type: cell-based; details: 24 hours of compound treatment, 50 nM and 500 nM
T4 construct: effects of the compounds of the present disclosure on the expression of target proteins in cells; endogenous in cells; host or cells: human PBMCs (hPBMCs)

WEE1 = target: T5, WEE1 (Homo sapiens, UniProt P30291+Q96SW2); assay: Western-blot assay, substrate protein degradation in hPBMCs: WEE1; assay type: cell-based; details: 24 hours of compound treatment, 50 nM and 500 nM
T5 construct: effects of the compounds of the present disclosure on the expression of target proteins in cells; endogenous in cells; host or cells: human PBMCs (hPBMCs)

H2228 = assay: Cell viability assay (CellTiter-Meiluncell Luminescent), tumor cell proliferation, H2228; details: Homo sapiens, NCI-H2228, 96 h; for inhibition at 0.01 µM: read-out: Inhibition Rate at 10 nM (%); for inhibition at 0.5 µM: read-out: Inhibition Rate at 500 nM (%)
Procedure: as §1, §2, §3

CK1α = target: T6, CK1α (Homo sapiens, UniProt P48729+Q96SW2); assay: Western-blot assay, substrate protein degradation in hPBMCs: CK1α; assay type: cell-based; details: 24 hours of compound treatment, 50 nM and 500 nM
T6 construct: effects of the compounds of the present disclosure on the expression of target proteins in cells; endogenous in cells; host or cells: human PBMCs (hPBMCs)

MDA-MB-231 = assay: Cell viability assay (CellTiter-Meiluncell Luminescent), tumor cell proliferation, MDA-MB-231; details: Homo sapiens, MDA-MB-231, 96 h; for inhibition at 0.01 µM: read-out: Inhibition Rate at 10 nM (%); for inhibition at 0.5 µM: read-out: Inhibition Rate at 500 nM (%)
H292 = assay: Cell viability assay (CellTiter-Meiluncell Luminescent), tumor cell proliferation, H292; details: Homo sapiens, NCI-H292, 96 h; for inhibition at 0.01 µM: read-out: Inhibition Rate at 10 nM (%); for inhibition at 0.5 µM: read-out: Inhibition Rate at 500 nM (%)

T1 sequence (Q9UKS7 whole entry): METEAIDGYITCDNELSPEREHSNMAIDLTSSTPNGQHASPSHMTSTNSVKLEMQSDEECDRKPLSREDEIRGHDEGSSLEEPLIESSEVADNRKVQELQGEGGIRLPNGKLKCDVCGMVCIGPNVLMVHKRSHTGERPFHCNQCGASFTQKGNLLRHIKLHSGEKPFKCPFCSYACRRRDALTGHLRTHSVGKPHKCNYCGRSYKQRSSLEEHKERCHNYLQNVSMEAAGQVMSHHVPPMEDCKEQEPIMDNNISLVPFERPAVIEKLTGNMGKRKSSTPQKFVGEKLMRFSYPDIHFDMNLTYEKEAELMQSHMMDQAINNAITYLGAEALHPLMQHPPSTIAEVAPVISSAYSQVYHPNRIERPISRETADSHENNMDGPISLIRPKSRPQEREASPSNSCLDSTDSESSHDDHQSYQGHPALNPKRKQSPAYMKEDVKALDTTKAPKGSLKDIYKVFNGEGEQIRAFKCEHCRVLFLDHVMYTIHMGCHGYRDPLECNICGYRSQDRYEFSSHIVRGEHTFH
T1 sequence (Q96SW2 whole entry): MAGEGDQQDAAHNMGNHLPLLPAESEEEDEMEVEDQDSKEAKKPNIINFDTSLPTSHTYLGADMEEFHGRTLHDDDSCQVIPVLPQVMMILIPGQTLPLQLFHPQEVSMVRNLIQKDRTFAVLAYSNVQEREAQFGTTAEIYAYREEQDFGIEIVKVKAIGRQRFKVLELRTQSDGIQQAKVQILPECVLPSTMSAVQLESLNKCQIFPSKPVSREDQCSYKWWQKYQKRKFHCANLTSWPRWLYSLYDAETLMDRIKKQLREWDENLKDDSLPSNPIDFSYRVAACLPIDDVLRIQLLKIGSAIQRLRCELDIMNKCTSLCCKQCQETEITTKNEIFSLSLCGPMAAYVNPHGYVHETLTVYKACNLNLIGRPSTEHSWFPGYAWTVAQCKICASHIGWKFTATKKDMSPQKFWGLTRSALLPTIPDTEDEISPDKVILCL
T1 sequence (Q16531 whole entry partner): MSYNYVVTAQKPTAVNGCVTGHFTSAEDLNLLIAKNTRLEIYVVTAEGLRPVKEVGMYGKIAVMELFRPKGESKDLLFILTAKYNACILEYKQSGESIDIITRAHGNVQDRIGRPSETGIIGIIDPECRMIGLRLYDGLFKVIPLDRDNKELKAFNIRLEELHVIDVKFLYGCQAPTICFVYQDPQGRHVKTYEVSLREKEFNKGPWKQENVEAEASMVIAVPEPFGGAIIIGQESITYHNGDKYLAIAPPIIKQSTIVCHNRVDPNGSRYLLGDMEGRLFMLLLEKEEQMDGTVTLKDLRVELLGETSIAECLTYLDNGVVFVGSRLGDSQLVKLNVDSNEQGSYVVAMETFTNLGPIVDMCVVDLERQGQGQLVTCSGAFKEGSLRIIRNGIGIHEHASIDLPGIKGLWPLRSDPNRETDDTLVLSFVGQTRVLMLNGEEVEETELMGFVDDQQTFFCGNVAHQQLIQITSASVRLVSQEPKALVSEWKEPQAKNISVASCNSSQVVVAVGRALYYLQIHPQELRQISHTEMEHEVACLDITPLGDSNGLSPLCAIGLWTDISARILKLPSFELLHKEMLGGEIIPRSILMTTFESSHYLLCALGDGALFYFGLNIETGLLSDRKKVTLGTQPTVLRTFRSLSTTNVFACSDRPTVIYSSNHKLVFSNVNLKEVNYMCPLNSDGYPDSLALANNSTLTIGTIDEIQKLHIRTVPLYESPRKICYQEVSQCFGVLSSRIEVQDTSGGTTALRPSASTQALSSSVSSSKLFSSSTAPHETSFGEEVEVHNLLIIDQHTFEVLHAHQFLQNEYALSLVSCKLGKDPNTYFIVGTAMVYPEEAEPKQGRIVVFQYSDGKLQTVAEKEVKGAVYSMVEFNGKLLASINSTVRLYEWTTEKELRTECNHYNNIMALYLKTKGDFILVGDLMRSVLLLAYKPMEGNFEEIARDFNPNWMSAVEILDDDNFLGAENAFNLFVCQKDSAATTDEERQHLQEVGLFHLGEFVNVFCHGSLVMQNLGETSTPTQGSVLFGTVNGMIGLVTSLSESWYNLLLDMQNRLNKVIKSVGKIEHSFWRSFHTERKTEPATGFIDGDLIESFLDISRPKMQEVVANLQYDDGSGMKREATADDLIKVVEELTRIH
T2 sequence (P15170 whole entry): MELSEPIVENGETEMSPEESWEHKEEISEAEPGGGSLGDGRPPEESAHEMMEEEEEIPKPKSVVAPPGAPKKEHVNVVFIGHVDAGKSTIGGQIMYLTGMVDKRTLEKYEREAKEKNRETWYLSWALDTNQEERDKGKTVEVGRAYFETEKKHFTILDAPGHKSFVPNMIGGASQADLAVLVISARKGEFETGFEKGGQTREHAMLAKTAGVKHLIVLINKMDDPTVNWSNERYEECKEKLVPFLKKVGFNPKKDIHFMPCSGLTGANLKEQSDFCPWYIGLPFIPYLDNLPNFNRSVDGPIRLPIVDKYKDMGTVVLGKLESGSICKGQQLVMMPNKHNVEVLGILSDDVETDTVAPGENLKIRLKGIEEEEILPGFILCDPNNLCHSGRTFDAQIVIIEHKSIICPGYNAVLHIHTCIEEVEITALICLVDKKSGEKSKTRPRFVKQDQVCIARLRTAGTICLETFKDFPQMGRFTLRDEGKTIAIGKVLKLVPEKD
T2 sequence (Q96SW2 whole entry): as the sequence (Q96SW2 whole entry) above
T2 sequence (Q16531 whole entry partner): as the sequence (Q16531 whole entry partner) above
T6 sequence (P48729 whole entry): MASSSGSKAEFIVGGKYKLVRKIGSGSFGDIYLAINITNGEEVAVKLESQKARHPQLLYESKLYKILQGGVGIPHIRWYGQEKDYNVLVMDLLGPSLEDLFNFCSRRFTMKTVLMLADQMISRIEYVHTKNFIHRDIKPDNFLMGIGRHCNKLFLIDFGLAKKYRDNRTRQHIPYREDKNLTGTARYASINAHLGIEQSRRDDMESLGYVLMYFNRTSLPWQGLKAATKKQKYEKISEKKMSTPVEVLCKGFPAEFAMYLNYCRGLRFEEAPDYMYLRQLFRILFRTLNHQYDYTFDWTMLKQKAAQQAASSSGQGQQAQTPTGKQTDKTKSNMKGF
T6 sequence (Q96SW2 whole entry): as the sequence (Q96SW2 whole entry) above
T6 sequence (Q16531 whole entry partner): as the sequence (Q16531 whole entry partner) above
T5 sequence (P30291 whole entry): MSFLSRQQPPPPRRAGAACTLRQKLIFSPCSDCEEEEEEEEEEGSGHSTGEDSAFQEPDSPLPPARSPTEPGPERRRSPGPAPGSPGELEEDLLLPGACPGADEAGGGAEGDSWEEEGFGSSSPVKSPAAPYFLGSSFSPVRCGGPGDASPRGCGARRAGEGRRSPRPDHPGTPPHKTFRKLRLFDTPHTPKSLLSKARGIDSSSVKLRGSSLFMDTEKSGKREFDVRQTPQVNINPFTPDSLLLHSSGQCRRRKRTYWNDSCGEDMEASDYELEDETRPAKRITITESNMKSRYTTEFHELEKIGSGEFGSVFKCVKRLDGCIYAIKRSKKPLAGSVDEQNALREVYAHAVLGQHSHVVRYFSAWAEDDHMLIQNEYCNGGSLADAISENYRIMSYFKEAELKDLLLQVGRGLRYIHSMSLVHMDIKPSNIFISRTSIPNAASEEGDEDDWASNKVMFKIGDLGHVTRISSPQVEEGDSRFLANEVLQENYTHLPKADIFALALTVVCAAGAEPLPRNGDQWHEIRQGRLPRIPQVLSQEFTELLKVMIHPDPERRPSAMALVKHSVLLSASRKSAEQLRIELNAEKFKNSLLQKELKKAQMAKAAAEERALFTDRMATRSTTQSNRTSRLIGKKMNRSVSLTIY
T5 sequence (Q96SW2 whole entry): as the sequence (Q96SW2 whole entry) above
T5 sequence (Q16531 whole entry partner): as the sequence (Q16531 whole entry partner) above
T4 sequence (Q13422 whole entry): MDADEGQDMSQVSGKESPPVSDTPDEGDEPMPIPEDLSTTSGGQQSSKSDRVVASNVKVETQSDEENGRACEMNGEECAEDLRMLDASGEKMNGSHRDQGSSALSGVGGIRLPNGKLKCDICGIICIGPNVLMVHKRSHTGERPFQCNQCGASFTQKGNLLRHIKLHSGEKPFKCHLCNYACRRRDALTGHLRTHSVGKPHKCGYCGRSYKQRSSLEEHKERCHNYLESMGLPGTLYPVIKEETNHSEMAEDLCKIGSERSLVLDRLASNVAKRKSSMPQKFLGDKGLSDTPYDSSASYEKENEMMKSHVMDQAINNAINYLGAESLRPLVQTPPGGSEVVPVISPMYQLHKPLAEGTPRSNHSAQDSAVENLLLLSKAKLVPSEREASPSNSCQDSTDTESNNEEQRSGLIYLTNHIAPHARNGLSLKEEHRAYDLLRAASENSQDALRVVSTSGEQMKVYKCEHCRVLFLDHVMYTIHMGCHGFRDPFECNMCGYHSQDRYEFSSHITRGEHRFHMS
T4 sequence (Q96SW2 whole entry): as the sequence (Q96SW2 whole entry) above
T4 sequence (Q16531 whole entry partner): as the sequence (Q16531 whole entry partner) above

SMILES	inhibition at 0.01 µM (MV-4-11)	inhibition at 0.5 µM (MV-4-11)	inhibition at 0.01 µM (MM.1S)	inhibition at 0.5 µM (MM.1S)	substrate protein remaining % IKZF2 (IKZF2)	substrate protein remaining % GSPT1 (GSPT1)	substrate protein remaining % IKZF3 (IKZF3)	substrate protein remaining % IKZF1 (IKZF1)	substrate protein remaining % WEE1 (WEE1)	inhibition at 0.01 µM (H2228)	inhibition at 0.5 µM (H2228)	substrate protein remaining % CK1α (CK1α)	inhibition at 0.01 µM (MDA-MB-231)	inhibition at 0.5 µM (MDA-MB-231)	inhibition at 0.01 µM (H292)	inhibition at 0.5 µM (H292)
O=C1CCN(N2Cc3cc(CN4CC=C(c5cccc(Cl)c5Cl)CC4)ccc3C2=O)C(=O)N1 [GT-08054, 1-(5-((4-(2,3-dichlorophenyl)-3,6-dihydropyridin-1(2H)-yl)methyl)-1-oxoisoindolin-2-yl)dihydropyrimidine-2,4(1H,3H)-dione]	18 to 25%	80 to 100%	5 to 10%	80 to 100%	A (0% ≤ substrate protein remaining % ≤ 80%)	A (0% ≤ substrate protein remaining % ≤ 80%)	A (0% ≤ substrate protein remaining % ≤ 80%)	A (0% ≤ substrate protein remaining % ≤ 80%)	A (0% ≤ substrate protein remaining % ≤ 80%)	20 to 25%	40 to 60%	A (0% ≤ substrate protein remaining % ≤ 80%)	25 to 40%	80 to 100%	–	–
O=C1CCN(N2Cc3cc(CN4CC=C(c5cccc(F)c5Cl)CC4)ccc3C2=O)C(=O)N1 [GT-08055, 1-(5-((4-(2-chloro-3-fluorophenyl)-3,6-dihydropyridin-1(2H)-yl)methyl)-1-oxoisoindolin-2-yl)dihydropyrimidine-2,4(1H,3H)-dione]	25 to 30%	80 to 100%	-10 to -5%	80 to 100%	A (0% ≤ substrate protein remaining % ≤ 80%)	A (0% ≤ substrate protein remaining % ≤ 80%)	A (0% ≤ substrate protein remaining % ≤ 80%)	A (0% ≤ substrate protein remaining % ≤ 80%)	A (0% ≤ substrate protein remaining % ≤ 80%)	10 to 15%	20 to 25%	A (0% ≤ substrate protein remaining % ≤ 80%)	18 to 25%	60 to 80%	–	–
Cc1sc2ncnc(N3CCCN(Cc4ccc5c(c4)CN(N4CCC(=O)NC4=O)C5=O)CC3)c2c1C [GT-08062, 1-(5-((4-(5,6-dimethylthieno[2,3-d]pyrimidin-4-yl)-1,4-diazepan-1-yl)methyl)-1-oxoisoindolin-2-yl)dihydropyrimidine-2,4(1H,3H)-dione]	–	–	30 to 42%	30 to 42%	A (0% ≤ substrate protein remaining % ≤ 80%)	B (80%< substrate protein remaining %≤ 100%)	A (0% ≤ substrate protein remaining % ≤ 80%)	B (80%< substrate protein remaining %≤ 100%)	B (80%< substrate protein remaining %≤ 100%)	25 to 30%	30 to 40%	B (80%< substrate protein remaining %≤ 100%)	15 to 18%	25 to 40%	20 to 40%	40 to 60%
O=C1CCN(N2Cc3cc(CN4CCC(c5ncnc6sc(-c7ccccc7)cc56)CC4)ccc3C2=O)C(=O)N1 [GT-08085, 1-(1-oxo-5-((4-(6-phenylthieno[2,3-d]pyrimidin-4-yl)piperidin-1-yl)methyl)isoindolin-2-yl)dihydropyrimidine-2,4(1H,3H)-dione]	30 to 40%	25 to 30%	30 to 42%	42 to 60%	B (80%< substrate protein remaining %≤ 100%)	A (0% ≤ substrate protein remaining % ≤ 80%)	B (80%< substrate protein remaining %≤ 100%)	B (80%< substrate protein remaining %≤ 100%)	B (80%< substrate protein remaining %≤ 100%)	25 to 30%	30 to 40%	A (0% ≤ substrate protein remaining % ≤ 80%)	25 to 40%	40 to 60%	20 to 40%	40 to 60%
Cc1nc(C2CCN(Cc3ccc4c(c3)CN(N3CCC(=O)NC3=O)C4=O)CC2)c2ccsc2n1 [GT-08088, 1-(5-((4-(2-methylthieno[2,3-d]pyrimidin-4-yl)piperidin-1-yl)methyl)-1-oxoisoindolin-2-yl)dihydropyrimidine-2,4(1H,3H)-dione]	40 to 60%	30 to 40%	42 to 60%	42 to 60%	B (80%< substrate protein remaining %≤ 100%)	A (0% ≤ substrate protein remaining % ≤ 80%)	B (80%< substrate protein remaining %≤ 100%)	B (80%< substrate protein remaining %≤ 100%)	A (0% ≤ substrate protein remaining % ≤ 80%)	25 to 30%	25 to 30%	A (0% ≤ substrate protein remaining % ≤ 80%)	18 to 25%	25 to 40%	20 to 40%	20 to 40%
O=C1CCN(N2C(=O)c3ccc(CN4CCN(c5ncnc6sc7c(c56)CCCC7)CC4)cc3C2=O)C(=O)N1 [GT-08102, 2-(2,4-dioxotetrahydropyrimidin-1(2H)-yl)-5-((4-(5,6,7,8-tetrahydrobenzo[4,5]thieno[2,3-d]pyrimidin-4-yl)piperazin-1-yl)methyl)isoindoline-1,3-dione]	40 to 60%	40 to 60%	30 to 42%	30 to 42%	–	–	–	–	–	20 to 25%	20 to 25%	–	–	–	–	–
CC(C)c1cc2c(C3=CCN(Cc4ccc5c(c4)CN(N4CCC(=O)NC4=O)C5=O)CC3)ncnc2s1 [GT-08158, 1-(5-((4-(6-isopropylthieno[2,3-d]pyrimidin-4-yl)-3,6-dihydropyridin-1(2H)-yl)methyl)-1-oxoisoindolin-2-yl)dihydropyrimidine-2,4(1H,3H)-dione]	30 to 40%	100 to 110%	5 to 10%	80 to 100%	–	–	–	–	–	25 to 30%	60 to 80%	–	18 to 25%	80 to 100%	20 to 40%	40 to 60%
Cc1sc2ncnc(C3=CCN(Cc4ccc5c(c4)CN(N4CCC(=O)NC4=O)C5=O)CC3)c2c1C [GT-08159, 1-(5-((4-(5,6-dimethylthieno[2,3-d]pyrimidin-4-yl)-3,6-dihydropyridin-1(2H)-yl)methyl)-1-oxoisoindolin-2-yl)dihydropyrimidine-2,4(1H,3H)-dione]	30 to 40%	80 to 100%	0 to 5%	60 to 80%	–	–	–	–	–	10 to 15%	25 to 30%	–	10 to 15%	18 to 25%	15 to 20%	20 to 40%
Nc1cccc2c1CN(C1CCC(=O)NC1=O)C2=O (centres unmarked) [lenalidomide, reference compound]	10 to 18%	10 to 18%	10 to 20%	30 to 42%	–	–	–	–	–	20 to 25%	15 to 20%	–	15 to 18%	10 to 15%	0 to 1%	5 to 10%
